In BindingDB's records for patent US12415785 (Ctxt, 2025):
pKd: −log10 of the molar value.

Biological target: T1, Stimulator of interferon genes protein [1-379,R71H,G230A,H232R,R293Q] (Homo sapiens, UniProt Q86WV6, G230A/H232R/R293Q/R71H)
T1 construct: 1-379
Experiment: Surface Plasmon Resonance (SPR)
Method: Briefly, approximately 20 nmol of recombinant STING protein in 1×TBS buffer (25 mM Tris-HCl, pH 7.5, 150 mM NaCl, 5 mM DTT) was mixed with of EZ-Link™ Sulfo-NHS-LC-LC-Biotin (Thermofisher Scientific, cat #21338) at a molar ratio of 1 to 0.6 and incubated on ice for 2 hours. To remove any unreacted biotin reagent, protein/biotin mixture was passed through a Superdex 75 (10/300 GL) column equilibrated with 10 mM HEPES, pH7.4, 150 mM NaCl, 5 mM DTT, 5%[v/v] glycerol. A protein peak containing biotinylated huSTING protein was collected and stored in aliquots at −80° C.Streptavidin was simultaneously immobilized in all four channels of a CM5 sensor chip docked in a Biacore instrument (either Biacore S200 or Biacore T200, GE Healthcare) as described previously (Zender 2013). Minimally biotinylated STING protein was captured onto a streptavidin coated chip surface at 8° C. in SPR binding buffer (50 mM HEPES, pH 7.4, 150 mM NaCl, 2%[v/v] DMSO) by gradually injecting in a single channel at a constant flow-rate of 2 μL/min until desired capture level was achieved, typically 3000 to 7000 RU (1 RU=1 pg/mm2).All binding experiments were performed at 8° C. in SPR binding buffer. To determine binding affinity, compound interaction with immobilized STING protein was analysed using dose-response experiments. Fresh 10 mM DMSO solutions of compound were diluted directly into SPR binding buffer typically to a concentration of 50 μM and then further diluted 2-fold or 3-fold aiming for either a 5- or 7-point concentration series range. Each ligand concentration series was injected at a constant flow rate of 60 μL/min with a 90 second association and a 180 second dissociation time.

T1 sequence (Q86WV6 whole entry R71H/G230A/H232R/R293Q, looked up): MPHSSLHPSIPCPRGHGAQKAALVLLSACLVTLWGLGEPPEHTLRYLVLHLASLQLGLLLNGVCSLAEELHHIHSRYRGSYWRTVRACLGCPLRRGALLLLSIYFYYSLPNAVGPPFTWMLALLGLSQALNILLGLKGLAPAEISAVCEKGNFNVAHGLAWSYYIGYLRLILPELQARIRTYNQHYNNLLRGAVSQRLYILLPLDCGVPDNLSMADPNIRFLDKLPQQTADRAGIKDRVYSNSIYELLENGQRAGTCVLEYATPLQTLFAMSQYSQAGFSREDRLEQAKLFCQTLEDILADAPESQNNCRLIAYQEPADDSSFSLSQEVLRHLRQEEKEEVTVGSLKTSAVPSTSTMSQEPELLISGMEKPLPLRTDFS

Structure (SMILES) | pKd
NC(=O)c1ccc2c(c1)nc(-c1ccccc1C(=O)O)n2CCn1c(-c2ccccc2C(=O)O)nc2cc(C(N)=O)ccc21 [US12415785, Example 2] | 4.17
COc1c(C(N)=O)ccc2c1nc(-c1ccccc1-c1nn[nH]n1)n2CCn1c(-c2ccccc2-c2nn[nH]n2)nc2c(OC)c(C(N)=O)ccc21 [US12415785, Example 6] | 4.92
COc1c(C(N)=O)ccc2c1nc(-c1ccc(Cl)cc1-c1nn[nH]n1)n2CCn1c(-c2ccc(Cl)cc2-c2nn[nH]n2)nc2c(OC)c(C(N)=O)ccc21 [US12415785, Example 9] | 5.58
COc1c(C(N)=O)ccc2c1nc(-c1c(F)cccc1C(=O)O)n2CCn1c(-c2c(F)cccc2C(=O)O)nc2c(OC)c(C(N)=O)ccc21 [US12415785, Example 10] | 6.74
COc1c(C(N)=O)ccc2c1nc(-c1c(F)cc(Cl)cc1C(=O)O)n2CCn1c(-c2c(F)cc(Cl)cc2C(=O)O)nc2c(OC)c(C(N)=O)ccc21 [US12415785, Example 11] | 7.11
COc1c(C(N)=O)ccc2c1nc(-c1cc(F)c(F)cc1C(=O)O)n2CCn1c(-c2cc(F)c(F)cc2C(=O)O)nc2c(OC)c(C(N)=O)ccc21 [US12415785, Example 15] | 5.20
COc1c(C(N)=O)ccc2c1nc(-c1ccc(Cl)cc1-c1n[nH]c(=O)o1)n2CCn1c(-c2ccc(Cl)cc2-c2n[nH]c(=O)o2)nc2c(OC)c(C(N)=O)ccc21 [US12415785, Example 17] | 6.38
COC(=O)c1c(Br)cccc1-c1nc2c(OC)c(C(N)=O)ccc2n1CCn1c(-c2cccc(Br)c2C(=O)OC)nc2c(OC)c(C(N)=O)ccc21 [US12415785, Example 21] | 5.96
COc1c(C(N)=O)ccc2c1nc(-c1ccc(Cl)cc1-c1cn[nH]n1)n2CCn1c(-c2ccc(Cl)cc2-c2cn[nH]n2)nc2c(OC)c(C(N)=O)ccc21 [US12415785, Example 24] | 4.66
COc1c(C(N)=O)ccc2c1nc(-c1ccc(C)cc1C(=O)O)n2CCn1c(-c2ccc(C)cc2C(=O)O)nc2c(OC)c(C(N)=O)ccc21 [US12415785, Example 25] | 4.71
COc1c(C(N)=O)ccc2c1nc(-c1cc(C)ccc1C(=O)O)n2CCn1c(-c2cc(C)ccc2C(=O)O)nc2c(OC)c(C(N)=O)ccc21 [US12415785, Example 26] | 4.49
COc1c(C(N)=O)ccc2c1nc(-c1cnccc1C(=O)O)n2CCn1c(-c2cnccc2C(=O)O)nc2c(OC)c(C(N)=O)ccc21 [US12415785, Example 30] | 4.05
CCc1ccc(-c2nc3c(OC)c(C(N)=O)ccc3n2CCn2c(-c3ccc(CC)cc3C(=O)O)nc3c(OC)c(C(N)=O)ccc32)c(C(=O)O)c1 [US12415785, Example 33] | 4.11
COc1c(C(N)=O)ccc2c1nc(-c1ccc(Cl)cc1C(=O)O)n2C/C=C/Cn1c(-c2ccc(Cl)cc2C(=O)O)nc2c(OC)c(C(N)=O)ccc21 [US12415785, Example 34] | 4.59
COc1c(C(N)=O)ccc2c1nc(-c1ccc(Cl)cc1C(=O)O)n2CCCn1c(-c2ccc(Cl)cc2C(=O)O)nc2c(OC)c(C(N)=O)ccc21 [US12415785, Example 35] | 4.46
NC(=O)c1ccc2c(c1)nc(-c1ccc(Cl)cc1C(=O)O)n2CCn1c(-c2ccc(Cl)cc2C(=O)O)nc2cc(C(N)=O)ccc21 [US12415785, Example 39] | 3.52
COc1ccc(-c2nc3c(OC)c(C(N)=O)ccc3n2CCn2c(-c3ccc(OC)cc3C(=O)O)nc3c(OC)c(C(N)=O)ccc32)c(C(=O)O)c1 [US12415785, Example 41] | 4.08
COc1c(C(N)=O)ccc2c1nc(-c1cc(Cl)ccc1-c1nn[nH]n1)n2CCn1c(-c2cc(Cl)ccc2-c2nn[nH]n2)nc2c(OC)c(C(N)=O)ccc21 [US12415785, Example 42] | 4.83
COc1c(C(N)=O)ccc2c1nc(-c1c(F)cc(F)cc1-c1nn[nH]n1)n2CCn1c(-c2c(F)cc(F)cc2-c2nn[nH]n2)nc2c(OC)c(C(N)=O)ccc21 [US12415785, Example 43] | 7.02
COc1c(C(N)=O)ccc2c1nc(-c1c(F)cc(F)cc1-c1n[nH]c(=O)o1)n2CCn1c(-c2c(F)cc(F)cc2-c2n[nH]c(=O)o2)nc2c(OC)c(C(N)=O)ccc21 [US12415785, Example 44] | 6.37
COc1c(C(N)=O)ccc2c1nc(-c1c(F)cccc1-c1nn[nH]n1)n2CCn1c(-c2c(F)cccc2-c2nn[nH]n2)nc2c(OC)c(C(N)=O)ccc21 [US12415785, Example 48] | 7.52
COc1c(C(N)=O)ccc2c1nc(-c1c(F)cccc1-c1n[nH]c(=O)o1)n2CCn1c(-c2c(F)cccc2-c2n[nH]c(=O)o2)nc2c(OC)c(C(N)=O)ccc21 [US12415785, Example 49] | 7.51
COc1c(C(N)=O)ccc2c1nc(-c1c(F)cc(Cl)cc1-c1n[nH]c(=O)o1)n2CCn1c(-c2c(F)cc(Cl)cc2-c2n[nH]c(=O)o2)nc2c(OC)c(C(N)=O)ccc21 [US12415785, Example 50] | 7.85

Other lines, results leading:

pKd | Structure (SMILES)
4.78 | COc1c(C(N)=O)ccc2c1nc(-c1ccc(Cl)cc1C(=O)O)n2CCn1c(-c2ccc(Cl)cc2C(=O)O)nc2c(OC)c(C(N)=O)ccc21 [US12415785, Example 1]
4.71 | NC(=O)c1ccc2c(c1)nc(-c1ccccc1-c1nn[nH]n1)n2CCn1c(-c2ccccc2-c2nnn[nH]2)nc2cc(C(N)=O)ccc21 [US12415785, Example 5]
6.78 | COc1c(C(N)=O)ccc2c1nc(-c1c(F)cc(F)cc1C(=O)O)n2CCn1c(-c2c(F)cc(F)cc2C(=O)O)nc2c(OC)c(C(N)=O)ccc21 [US12415785, Example 16]
6.84 | COc1c(C(N)=O)cc(F)c2c1nc(-c1c(F)cc(F)cc1C(=O)O)n2CCn1c(-c2c(F)cc(F)cc2C(=O)O)nc2c(OC)c(C(N)=O)cc(F)c21 [US12415785, Example 18]
8.70 | COc1c(C(N)=O)ccc2c1nc(-c1c(I)cccc1C(=O)O)n2CCn1c(-c2c(I)cccc2C(=O)O)nc2c(OC)c(C(N)=O)ccc21 [US12415785, Example 19.1]
4.89 | COc1c(C(N)=O)cc(F)c2c1nc(-c1ccc(Cl)cc1C(=O)O)n2CCn1c(-c2ccc(Cl)cc2C(=O)O)nc2c(OC)c(C(N)=O)cc(F)c21 [US12415785, Example 20]
8.70 | COc1c(C(N)=O)ccc2c1nc(-c1c(Cl)cccc1C(=O)O)n2CCn1c(-c2c(Cl)cccc2C(=O)O)nc2c(OC)c(C(N)=O)ccc21 [US12415785, Example 22]
8.70 | COc1c(C(N)=O)ccc2c1nc(-c1c(Cl)cccc1-c1nn[nH]n1)n2CCn1c(-c2c(Cl)cccc2-c2nn[nH]n2)nc2c(OC)c(C(N)=O)ccc21 [US12415785, Example 23]
6.03 | NC(=O)c1ccc2c(c1)nc(-c1c(Br)cccc1C(=O)O)n2CCn1c(-c2c(Br)cccc2C(=O)O)nc2cc(C(N)=O)ccc21 [US12415785, Example 29.1]
4.26 | COc1c(C(N)=O)ccc2c1nc(-c1ncc(Cl)cc1C(=O)O)n2CCn1c(-c2ncc(Cl)cc2C(=O)O)nc2c(OC)c(C(N)=O)ccc21 [US12415785, Example 31]
4.19 | COc1c(C(N)=O)ccc2c1nc(-c1cccc(Cl)c1-c1nn[nH]n1)n2CCn1c(-c2cccc(Cl)c2-c2nn[nH]n2)nc2c(OC)c(C(N)=O)ccc21 [US12415785, Example 40]
7.60 | COc1c(C(N)=O)ccc2c1nc(-c1c(F)cc(Cl)cc1-c1nn[nH]n1)n2CCn1c(-c2c(F)cc(Cl)cc2-c2nn[nH]n2)nc2c(OC)c(C(N)=O)ccc21 [US12415785, Example 46]
